We go through 4 molecules from patent publication US20120022116A1, “COMPOSITIONS AND METHODS FOR THE TREATMENT OF PATHOLOGICAL CONDITION(S) RELATED TO GPR35 AND/OR GPR35-HERG COMPLEX” (priority 2010, published 2012).

Entries after “also recorded” stand apart in the source; their conditions may differ. Read-outs that look alike come from different tables or passages of the source.

Series [1] concerns the target T1, hERG channel (Homo sapiens, UniProt Q12809). The experiment in a line: Automated patch clamp recording of hERG tail current (IonWorks). As to conditions: hERG tail current ratio post/pre-compound, 50 uM.
Series [2] concerns the target T2, GPR35 (Homo sapiens, UniProt Q9HC97).
T2 construct: myc; expressed in transfected cells; host or cells: HEK293, transient co-transfection (Lipofectamine LTX)
The experiment in a line: Ca2+ mobilization assay (Fluo-4) in HEK-GPR35-Gqo5 cells. The note with it: for Ca2+ moblization (HEK-GPR35-Gqo5): HEK293 cells co-expressing GPR35 and Gqo5, Fluo-4, compounds 10 μM; for Ca2+ mobilization signal in cells co-expressing GPR35 and Gqo5: engineered HEK293, 10 μM. The format is cell-based.

Series [3] concerns HT29 cells. The experiment in a line: cAMP-Glo assay in HT29 cells. The format is cell-based, human. As to conditions: for increase in intracellular cAMP concentration: HT29 cells, Gs readout; for suppression in intracellular cAMP concentration: forskolin co-stimulated HT29 cells, Gi readout. On the procedure: Cells were plated in 384well plates (BD Bioscience, Cat#354660) (10000 cells/well for HEK293, 20000 cells/well for HT29). Cells were cultured in complete growth medium overnight. The next day cAMP-Glo assay was performed according to manufacturer's instruction (Promega, Cat#V1502). Cells were incubated with 20 μM compounds in induction buffer with or without 0.5 μM or 5 μM forskolin for 30 minutes before adding lysis buffer. Luminescence was measured using Tecan SafireII reader.
Cells were plated in 384 well plates (BD Bioscience, Cat# 354660) (10000 cells/well for HEK293, 20000 cells/well for HT29). Cells were cultured in complete growth medium overnight. The next day cAMP-Glo assay was performed according to manufacturer's instruction (Promega, Cat#V 1502). Cells were incubated with 20 μM compounds in induction buffer with or without 0.5 μM or 5 μM forskolin for 30 minutes before adding lysis buffer. Luminescence was measured using Tecan SafireII reader.
Cells were plated in 384 well plates (BD Bioscience, Cat# 354660) (10000 cells/well for HEK293, 20000 cells/well for HT29). The cells were cultured in complete growth medium overnight. The next day a cAMP-Glo assay was performed according to manufacturer's instruction (Promega, Cat#V1502). The cells were incubated with 20 μM compounds in induction buffer with or without 0.5 μM or 5 μM forskolin for 30 minutes before adding lysis buffer. Luminescence was measured using Tecan SafireII reader.

In series [4] the test system is HT29 cells. Description: Fluo-4 Ca2+ mobilization assay in native HT29 cells. The format is cell-based, human. As to conditions: Fluo-4 assay, 10 micromolar. As for the experimental part:
Fluo-4 Direct™ Calcium Assay Kit was purchased from Invitrogen (Starter pack, Cat. no. F10471). HEK293 cells (15000 cells/well) and HT29 cells (30000 cells/well) were seeded in polyD-lysine coated 384well plates (Corning Inc., Cat#3845), culture overnight at 37° C. The next day, Ca^2+ flux assay was performed following manufacturer's instruction and fluorescence ratio (340 nm/380 nm) was measured on FDSS (Functional Drug Screening System, Hamamatsu Photonics, Japan). Compounds were prepared as 10× stock (final concentration 10 μM) in the Ca^2+ assay buffer.
Fluo-4 Direct™ Calcium Assay Kit was purchased from Invitrogen (Starter pack, Cat. no. F10471). HEK293 cells (15000 cells/well) and HT29 cells (30000 cells/well) were seeded in polyD-lysine coated 384 well plates (Corning Inc., Cat#3845) and cultured overnight at 37° C. The next day, the Ca^2+ flux assay was performed following manufacturer's instruction and fluorescence ratio (340 nm/380 nm) was measured on FDSS (Functional Drug Screening System, Hamamatsu Photonics, Japan). Compounds were prepared as 10× stock (final concentration 10 μM) in the Ca^2+ assay buffer.

Series [5] deals with GPR35. The experiment in a line: GPR35 receptor internalization, immunofluorescence confocal imaging in HT29 cells. The format is cell-based, human. As to conditions: anti-GPR35 antibody. On the procedure:
HT29 cells were plated on a 8-well chamber slide (10,000 cells/well) and incubated at 37° C. for 24 hrs. Next day, cells were fixed with 4% formaldehyde in 1×PBS for 15 min, followed by blocking and permeabilization in a buffer that contains 4% goat serum, 0.1% BSA, 0.1% Triton X100 in 1×PBS for 2 hrs. After 5 min wash with PBS, fixed cells were incubated with primary antibody anti-GPR35 (Abcam) (1:300) in 3% BSA/PBS buffer for 24 hrs, followed by incubation with secondary antibody Alexa Fluor® 488 goat anti-rabbit IgG (H+L) (Invitrogen) (1:250) in 3% BSA/PBS for 1 hr at room temperature. Cells were finally washed once with PBS and sealed with 1.5 mm thick glass cover-slip. Dried slides were stored at 4° C. until imaging. Confocal imaging was performed with Zeiss confocal microscope Axiovert 40. […] Confocal images were analyzed using MacBiophotonics Image J software (http://www.macbiophotonics.ca/downloads.htm).
HT29 cells were plated on a 8-well chamber slide (10,000 cells/well) and incubated at 37° C. for 24 hrs. […] Confocal images were analyzed using MacBiophotonics Image J software (http://www.macbiophotonics.ca/downloads.htm).
HT29 cells were plated on a 8-well chamber slide (10,000 cells/well) and incubated at 37° C. for 24 hrs. […] Confocal images were analyzed using MacBiophotonics Image J software (http://www.macbiophotonics.ca/downloads.htm). […]

In series [6] the test system is HEK293 cells expressing only Gqo5 or GPR35. The experiment in a line: Ca2+ mobilization assay in HEK293 cells expressing only Gqo5 or only GPR35. The format is cell-based, human. The note with it: engineered HEK293, 10 μM. As for the experimental part:
Ca^2+ flux assay with transient transfected cells were carried out in 96-well plates (Corning Inc, Cat#3664). HEK293 cells (25000 cells/well) were seeded on day 1. Cells were transfected with either myc-GPR35 or HA-Gqo5 or co-transfected with both plasmids (myc-GPR35/HA-Gqo5 DNA ratio 2:1) using Lipofectamine LTX (Invitrogen) on day 2. Ca^2+ flux assay was performed 24 hours after transfection.
Ca^2+ flux assays with transient transfected cells were carried out in 96-well plates (Corning Inc, Cat#3664). HEK293 cells (25000 cells/well) were seeded on day 1. Cells were transfected with either myc-GPR35 or HA-Gqo5 or co-transfected with both plasmids (myc-GPR35/HA-Gqo5 DNA ratio 2:1) using Lipofectamine LTX (Invitrogen) on day 2. Ca^2+ flux assays were performed 24 hours after transfection.

The subject of series [7] is GPR35. Description: DMR desensitization / antagonism mode against GPR35 agonist-induced DMR in HT29 cells. The format is cell-based, human. As to conditions: for Desenstization to GPR35 agonist: HT29 cells pretreated with compound, then GPR35 agonist.
Series [8] concerns hERG channel. The experiment in a line: Cross-desensitization DMR assay against hERG activator mallotoxin-induced DMR in HT29 cells.
Series [9] deals with HEK-293 cells. Description: DMR assay in parental HEK-293 cells. The format is cell-based, human. The note with it: zaprinast 10 μM.
Series [10] deals with T1, hERG channel. Also on record: expressed in transfected cells. As to conditions: 10 μM; cited from earlier work.
Series [11] relates to hERG channel.
Series [12] deals with HEK-hERG cells.
Series [13] deals with HEK-hERG cells. Description: DMR assay in HEK-hERG cells. The note with it: zaprinast 10 μM.
Where [14] appears, read: listed as 6-bromo-3-methylthieno[3,2-b]thiophene-2-carboxylic acid.

T1 sequence (Q12809 whole entry): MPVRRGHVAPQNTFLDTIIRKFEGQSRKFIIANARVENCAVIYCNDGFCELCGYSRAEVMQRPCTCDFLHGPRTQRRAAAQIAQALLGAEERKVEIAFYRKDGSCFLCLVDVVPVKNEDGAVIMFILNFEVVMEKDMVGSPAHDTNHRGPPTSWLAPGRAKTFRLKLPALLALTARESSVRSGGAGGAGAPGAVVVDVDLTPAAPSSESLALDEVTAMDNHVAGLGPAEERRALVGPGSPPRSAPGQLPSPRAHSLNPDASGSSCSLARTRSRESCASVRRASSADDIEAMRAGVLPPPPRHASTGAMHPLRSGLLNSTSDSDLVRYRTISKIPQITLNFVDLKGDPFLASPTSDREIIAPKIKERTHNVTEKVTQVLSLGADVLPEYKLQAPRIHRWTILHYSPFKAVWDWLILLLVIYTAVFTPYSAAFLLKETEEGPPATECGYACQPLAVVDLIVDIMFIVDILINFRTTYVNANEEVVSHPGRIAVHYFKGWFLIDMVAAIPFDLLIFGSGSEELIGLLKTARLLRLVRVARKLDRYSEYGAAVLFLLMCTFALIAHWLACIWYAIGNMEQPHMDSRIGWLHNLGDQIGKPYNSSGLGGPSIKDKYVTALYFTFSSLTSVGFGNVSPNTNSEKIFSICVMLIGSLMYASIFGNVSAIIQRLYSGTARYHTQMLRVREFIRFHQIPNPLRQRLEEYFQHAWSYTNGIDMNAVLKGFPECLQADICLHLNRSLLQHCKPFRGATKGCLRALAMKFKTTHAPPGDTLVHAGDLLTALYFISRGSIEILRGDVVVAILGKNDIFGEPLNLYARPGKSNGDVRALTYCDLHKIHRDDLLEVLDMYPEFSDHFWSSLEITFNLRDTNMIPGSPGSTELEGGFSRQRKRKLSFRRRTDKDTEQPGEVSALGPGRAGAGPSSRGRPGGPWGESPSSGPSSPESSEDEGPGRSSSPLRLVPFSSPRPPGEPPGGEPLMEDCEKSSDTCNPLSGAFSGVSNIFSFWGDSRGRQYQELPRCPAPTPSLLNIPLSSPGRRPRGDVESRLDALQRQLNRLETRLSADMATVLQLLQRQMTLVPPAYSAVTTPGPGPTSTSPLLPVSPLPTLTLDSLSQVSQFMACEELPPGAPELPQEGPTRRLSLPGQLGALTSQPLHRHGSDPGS
T2 sequence (Q9HC97 whole entry): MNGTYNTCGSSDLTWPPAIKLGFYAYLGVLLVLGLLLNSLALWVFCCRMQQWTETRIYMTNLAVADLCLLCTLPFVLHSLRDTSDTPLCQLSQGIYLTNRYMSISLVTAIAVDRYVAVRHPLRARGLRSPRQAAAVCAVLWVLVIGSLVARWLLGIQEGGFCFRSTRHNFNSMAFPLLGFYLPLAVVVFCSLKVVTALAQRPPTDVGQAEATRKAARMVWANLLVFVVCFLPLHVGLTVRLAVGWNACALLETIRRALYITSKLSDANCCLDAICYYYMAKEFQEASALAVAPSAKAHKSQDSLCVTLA

Regarding `Cc1c(C(=O)O)sc2c(Br)csc12` [Compound 13, 3-methyl-6-bromo-thieno[3,2-b]thiophene-2-carboxylic acid], in series [1], the “Electrophysiology (HEK-hERG)” value was “activator”. In addition, in series [2], the “Ca2+ moblization (HEK-GPR35-Gqo5)” value is “inactive”; the “Ca2+ mobilization signal in cells co-expressing GPR35 and Gqo5” value was “triggered quite obvious Ca^2+ signal”. Besides, in [3], the “increase in intracellular cAMP concentration” value is “neither zaprinast nor 6-bromo-3-methylthieno[3,2-b]thiophene-2-carboxylic acid was able to cause increase in intracellular cAMP concentration” and the “suppression in intracellular cAMP concentration” value was “neither zaprinast nor 6-bromo-3-methylthieno[3,2-b]thiophene-2-carboxylic acid cause any suppression in intracellular cAMP concentration”. The “Ca2+ mobilization signal in HT29 cells” value in series [4] (setting [14]) is “unable to cause any detectable Ca^2+ signal”. Also, the GPR35 receptor internalization result in series [5] (setting [14]) is “underwent internalization; also recorded: caused receptor internalization”. For the same molecule, the “Ca2+ mobilization signal in cells expressing only Gqo5 or GPR35” value in series [6] was “failed to cause any obvious Ca^2+ mobilization signal”. In addition, in series [7], the “Desenstization to GPR35 agonist” value was “desenstized”. Also, the “desensitization / attenuation of the GPR35 agonist (zaprinast, NPPB) DMR signal in HT29 cells” value (“desensitization / attenuation” below) in series [7] (pretreatment, zaprinast 400 nM) is reported as “caused desensitization”.
Consider `CC(=O)c1c(O)c(C)c(O)c(Cc2c(O)c3c(c(C(=O)/C=C/c4ccccc4)c2O)OC(C)(C)C=C3)c1O` [Mallotoxin, mallotoxin], for which the “Desenstization to hERG activator” value in series [8] (HT29 cells pretreated with compound, then hERG activator mallotoxin) is reported as “desenstized”. Also, the “Electrophysiology (HEK-hERG)” value in series [1] was “activator”. The “DMR signal in HEK-293 cells” value in [9] is on record as “no detectable DMR signal (i.e., net-zero DMR)”. For the same molecule, the “shift of the half maximal activation voltage (V1/2) to the hyperpolarizing direction” value in series [10] is “more than 25 mV”. For the same molecule, in [7], the “desensitization / attenuation” value is “dose-dependently, partially inhibited; also recorded: partially attenuate; also recorded: dose-dependently desensitized” and the “Desenstization to GPR35 agonist” value is reported as “desenstized”.
On to `Cc1cccc(Nc2ccccc2C(=O)O)c1C` [Mefenamic Acid], for which, in series [2], the “Ca2+ moblization (HEK-GPR35-Gqo5)” value was “inactive”. Also, the “Desenstization to GPR35 agonist” value in series [7] is “desenstized”. Moreover, in series [11], the “Desenstization to hERG activator” value is listed as “partially desenstized”.
Regarding `CCCOc1ccccc1-c1nc2nn[nH]c2c(=O)[nH]1` [zaprinast], in series [8] (pretreatment, mallotoxin 16 micromolar), the “attenuation of the mallotoxin DMR signal in HT29 cells” value is “dose-dependently, partially attenuated; also recorded: partially attenuate; also recorded: dose-dependently desensitized”. In series [1], the “Electrophysiology (HEK-hERG)” value was “inactive”. Moreover, the “DMR signal in HEK-293 cells” value in [9] is reported as “net-zero DMR signal”. For the same molecule, in series [2], the “Ca2+ moblization (HEK-GPR35-Gqo5)” value was “active”; the “Ca2+ mobilization signal in cells co-expressing GPR35 and Gqo5” value is given as “triggered quite obvious Ca^2+ signal; also recorded: triggered a detectable Ca^2+ mobilization signal; also recorded: active”. Moreover, the “impact on the mallotoxin DMR signal in HEK-hERG cells” value in series [12] is on record as “little or no impact”. Besides, in series [3], the “increase in intracellular cAMP concentration” value is “neither zaprinast nor 6-bromo-3-methylthieno[3,2-b]thiophene-2-carboxylic acid was able to cause increase in intracellular cAMP concentration” and the “suppression in intracellular cAMP concentration” value is “neither zaprinast nor 6-bromo-3-methylthieno[3,2-b]thiophene-2-carboxylic acid cause any suppression in intracellular cAMP concentration”. The “Ca2+ mobilization signal in HT29 cells” value in series [4] is reported as “failed to cause any significant Ca^2+ mobilization; also recorded: unable to cause any detectable Ca^2+ signal; also recorded: did not result in any detectable Ca^2+ mobilization signal”. Besides, the “Ca2+ mobilization signal in HT29 cells” value in series [4] (listed as Zaprinast) was “did not result in any detectable Ca^2+ mobilization signal”. Moreover, the GPR35 receptor internalization entry in series [5] is on record as “underwent internalization; also recorded: caused receptor internalization; also recorded: significant receptor internalization”. The “Ca2+ mobilization signal in cells expressing only Gqo5 or GPR35” value in series [6] is on record as “failed to cause any obvious Ca^2+ mobilization signal; also recorded: not in either parental cell, or the engineered cells expressing either GPR35 or Gqo5”. The “DMR signal in HEK-hERG cells” value in series [13] is reported as “net-zero DMR signal”. The “Desenstization to GPR35 agonist” value in series [7] is reported as “desenstized”. The “desensitization / attenuation” value in series [7] (pretreatment, zaprinast 400 nM) is reported as “dose-dependently caused desensitization”.
